Laboratory results as given in EP1338280A1, “COMBINATION OF AMINES AND VANADIUM (IV)/(V) COMPOUNDS FOR THE TREATMENT AND/OR PREVENTION OF DIABETES MELLITUS” (priority 2000, dated 2002).

How the values were obtained:
GLUT4 = GLUT4 translocation: Western blot of GLUT4 in plasma membrane and low density microsome fractions of rat adipocytes; assay type: cell-based; parameters: abundance of GLUT4 in plasma membranes: dose or concentration left out as unconfirmed; details: for abundance of GLUT4 in plasma membranes: 45 minutes incubation, benzylamine or orthovanadate alone
Method: To verify whether the stimulation of glucose transport in rat adipocytes may be explained by a translocation of the insulin-sensitive glucose transporters from an internal site to the plasma membrane, as it is known for insulin, the amount of GLUT4 protein was determined in plasma membrane (PM) and low density microsome (LDM) fractions. […] These increases in GLUT4 content occurred without any significant change in the content of β1-integrin, a constitutive PM protein. Changes in the GLUT4 content of LDM mirrored, to a lesser extent, those reported in the PM (basal LDM content was decreased by 29 % and 12 % with insulin and tyramine plus orthovanadate respectively).
This study was carried out in order to determine whether the stimulation of glucose transport induced by the combination of benzylamine and orthovanadate was a consequence of alterations in the abundance of GLUT4 glucose carriers in the cell surface from adipose cells. Thus, isolated rat adipocytes were incubated in the absence or in the presence of insulin, benzylamine ([…]), orthovanadate ([…]) or the combination of benzylamine and orthovanadate, and 45 minutes later cells were homogenized and subjected to subcellular membrane fractionation. […] However, the incubation of cells with benzylamine and orthovanadate caused a 2.3-fold increase in the presence of GLUT4 in plasma membrane fractions. The effects of insulin or the combination benzylamine and orthovanadate on GLUT4 abundance in plasma membranes were specific and the plasma membrane marker β1-integrin remained unaltered after incubation with these agents. The recruitment of GLUT4 to the plasma membranes detected by insulin or the combination of benzylamine and orthovanadate was concomitant with a reduction of GLUT4 abundance in light microsomes. This was consistent with the view that benzylamine and orthovanadate translocate GLUT4 to the plasma membrane in isolated rat adipocytes.

[1] = test system: streptozotocin-induced diabetic rats; experiment: Chronic administration in streptozotocin-induced diabetic rats; assay type: in vivo; details: for food and water consumption / weight of epididymal adipose tissue (adiposity): chronic treatment of diabetic rats
Method: (§1) Based on the finding of potent insulin-like effects of in vitro incubation of benzylamine and vanadate, the chronic administration of these compounds in diabetic rats was tested. To this end, streptozotocin-induced diabetic rats were implanted subcutaneously with osmotic minipumps releasing benzylamine (84 µmol/kg/day) or were sham-operated. […] A group of animals was also subjected to daily i.p. injection of vanadate (50 µmol/kg body wt) for two weeks.
In other studies, rats were daily injected intraperitoneally with 25 µmol/kg vanadate for the first week and with 50 µmol/kg for the second week. […] However, the combination of benzylamine and vanadate reduced hyperglycemia in diabetic rats during the second week of treatment (FIG. 7).
The chronic treatment with benzylamine and vanadate caused a substantial decrease in food and water consumption which returned to normal levels and an increase in the weight of epididymal adipose tissue. All these variations occurred in the absence of changes in body weight. The effects on adiposity or food and water intake were not detected when benzylamine or vanadate was administered alone. Furthermore the normalisation of glycemia caused by chronic treatment with both benzylamine and vanadate takes place in the absence of changes in plasma insulin concentrations.

isolated rat adipocytes = experiment: Hexose transport ([3H]-2-deoxyglucose uptake) in isolated rat adipocytes; assay type: cell-based; parameters: 2-deoxyglucose uptake (stimulatory effect): dose or concentration left out as unconfirmed; details: for 2-deoxyglucose uptake (stimulatory effect): benzylamine or orthovanadate alone, 45 min incubation, ten-minute uptake; for glucose transport: 45 min preincubation of fat cells with increasing concentrations, 5-min 2-DG uptake
Method: Adipocyte isolation. Male Wistar rats (200-260 g) were sacrificed in a fed state, and the internal epididymal adipose tissues was dissected out and digested in Krebs-Ringer buffer as described (cf. C. Carpene et al., Biochem. PharmacoL 1990, voL 40, pp. 437-445). Adipose cells isolated is such a way were used in subsequent studies.
Hexose transport After a preincubation period of 45 min at 37 °C in vials containing 400 µl of cell suspension in KRBH with the tested products, [^3H]-2-deoxyglucose was added at a final concentration of 0.1 mM (approx. 1,300,000 d.p.m./vial). The assays were further incubated for 5 or 10 min and then stopped with 100 µl of cytochalasin B. Aliquots (200 µl) of the cell suspension were centrifuged in microtubes as described (cf. J.M. Olefsky, Biochem. J. 1978, voL 172, pp. 137-145). After centrifugation, the fat cells (upper part of the tubes) were placed in scintillation vials and the incorporated radioactivity was counted.

[2] = assay type: physicochemical
Method: as §1

[3] = vanadate i.p. daily 25 µmol/kg first week and 50 µmol/kg second week, benzylamine 84 µmol/kg

[Na+].[Na+].[Na+].[O]=[V]([O-])([O-])[O-] [orthovanadate, sodium orthovanadate Na3VO4]
abundance of GLUT4 in plasma membranes (GLUT4): did not alter
amount of GLUT4 protein in the PM (GLUT4; Western blot, orthovanadate 0.1 mM, n = 3): 103 ± 8%
food and water consumption [1]: not detected
weight of epididymal adipose tissue (adiposity) [1]: not detected
glycemia ([1]; vanadate 50 µmol/kg body wt daily i.p. for two weeks, benzylamine 84 µmol/kg/day by osmotic minipumps): moderate reduction
glycemia [1, 3]: remained hyperglycemic
stimulation of glucose transport relative to that of 100 nM insulin (maximal insulin effect) (isolated rat adipocytes; 1 mM tyramine, 0.1 mM orthovanadate, n = 40): 5 ± 1%
2-deoxyglucose uptake (stimulatory effect) (isolated rat adipocytes): did not stimulate
basal or insulin-stimulated glucose transport (isolated rat adipocytes; orthovanadate alone 0.1 mM): did not affect

NCCc1c[nH]c2ccc(O)cc12 [serotonin]
glucose transport (isolated rat adipocytes): not activated

NCCc1ccc(O)cc1 [tyramine]
glucose transport (isolated rat adipocytes): not activated
synergism with low, ineffective dose of hydrogen peroxide on glucose transport (isolated rat adipocytes; hydrogen peroxide 0.01 mM, not shown): no synergism
synergism with low, ineffective dose of insulin on glucose transport (isolated rat adipocytes; insulin 10 pM, not shown): no synergism

CNC[C@H](O)c1cccc(O)c1 [phenylephrine]
glucose transport (isolated rat adipocytes): not activated

NCc1ccccc1 [benzylamine]
abundance of GLUT4 in plasma membranes (GLUT4): did not alter
stability in implanted osmotic minipumps [2]: stable for two weeks
food and water consumption [1]: not detected
weight of epididymal adipose tissue (adiposity) [1]: not detected
glycemia [1, 3]: remained hyperglycemic
2-deoxyglucose uptake (stimulatory effect) (isolated rat adipocytes): no stimulatory effect

NNC(N)=O [semicarbazide]
inhibition at 100 µM (isolated rat adipocytes; Rattus norvegicus, Adipocyte, semicarbazide 0.1 mM, read-out: inhibition of the glucose transport promoted by 1 mM tyramine plus orthovanadate): 59 ± 7%
benzylamine-orthovanadate-stimulated 2-deoxyglucose uptake (isolated rat adipocytes; semicarbazide 1 mM): abolished
glucose transport stimulated by 1 mM hydrogen peroxide plus 0.1 mM orthovanadate (isolated rat adipocytes; semicarbazide 1 mM): unaffected

OO [hydrogen peroxide]
glucose transport (isolated rat adipocytes): dose-dependently stimulated
activation at 1000 µM (isolated rat adipocytes; Rattus norvegicus, Adipocyte, 0.75 h, 1 mM H2O2, preincubation 45 min, n = 23, read-out: effect relative to the maximal insulin effect): 46%
fold induction at 1000 µM (isolated rat adipocytes; Rattus norvegicus, Adipocyte, 0.75 h, 1 mM H2O2, preincubation 45 min, n = 23, read-out: factor by which basal transport is multiplied): 5 ± 0.8
